According to ChEMBL document CHEMBL1201862, “PubChem BioAssay data set” (2004):
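Growth conditions: 96-well plates. Treatment: test compound, 48 hours, 5 concentrations. Analysis: linear interpolation between bracketing concentrations; unreached endpoints set to highest concentration. GI50 = concentration required for 50% inhibition of growth.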 The source made the active and inactive calls. Cut-off read from the data, not from the text of the source: active = GI50 up to about 1.1 µM and inactive = higher.

What was measured:
Test in all cases: NCI tumour cell line growth inhibition, 48 h
786-0 = test system: 786-0
A498 = test system: A498
A549 = test system: A549
ACHN = test system: ACHN
BT-549 = test system: BT-549
CAKI-1 = test system: CAKI-1
CCRF-CEM = test system: CCRF-CEM
COLO 205 = test system: COLO 205
DU-145 = test system: DU-145
EKVX = test system: EKVX
HCC 2998 = test system: HCC 2998
HCT-116 = test system: HCT-116
HCT-15 = test system: HCT-15
HL-60 = test system: HL-60
HOP-62 = test system: HOP-62
HOP-92 = test system: HOP-92
HT-29 = test system: HT-29
Hs-578T = test system: Hs-578T
IGROV-1 = test system: IGROV-1
KM12 = test system: KM12
LOX IMVI = test system: LOX IMVI
M14 = test system: M14
MCF7 = test system: MCF7
MDA-MB-231 = test system: MDA-MB-231
MDA-MB-435 = test system: MDA-MB-435
MDA-N = test system: MDA-N
MOLT-4 = test system: MOLT-4
Malme-3M = test system: Malme-3M
NCI-H226 = test system: NCI-H226
NCI-H23 = test system: NCI-H23
NCI-H522 = test system: NCI-H522
NCI/ADR-RES = test system: NCI/ADR-RES
OVCAR-3 = test system: OVCAR-3
OVCAR-4 = test system: OVCAR-4
OVCAR-5 = test system: OVCAR-5
OVCAR-8 = test system: OVCAR-8
PC-3 = test system: PC-3
RPMI-8226 = test system: RPMI-8226
RXF 393 = test system: RXF 393
SF-268 = test system: SF-268
SF-295 = test system: SF-295
SK-MEL-28 = test system: SK-MEL-28
SK-MEL-2 = test system: SK-MEL-2
SK-MEL-5 = test system: SK-MEL-5
SK-OV-3 = test system: SK-OV-3
SN12C = test system: SN12C
SNB-19 = test system: SNB-19
SNB-75 = test system: SNB-75
SR = test system: SR
SW-620 = test system: SW-620
T47D = test system: T47D
TK-10 = test system: TK-10
U-251 = test system: U-251
UACC-257 = test system: UACC-257
UACC-62 = test system: UACC-62
K562 = test system: K562
NCI-H460 = test system: NCI-H460
SF-539 = test system: SF-539
UO-31 = test system: UO-31

`COc1cc(C2S/C(=C/c3ccccc3)C(=O)N2c2ccc(Cl)cc2)cc(OC)c1OC` (stereo not given) was tested, and the GI50 (786-0) was > 100 µM (inactive), the GI50 (A498) was 53.8 µM (inactive) and the GI50 (A549) was 24.4 µM (inactive). The GI50 (ACHN) was 0.178 µM (active), the GI50 (BT-549) was 7.43 µM (inactive) and the GI50 (CAKI-1) was 20.9 µM (inactive). The GI50 (CCRF-CEM) was 4.4 µM (inactive), the GI50 (COLO 205) was 0.617 µM (active) and the GI50 (DU-145) was 54.2 µM (inactive). The GI50 (EKVX) was 23.8 µM (inactive), the GI50 (HCC 2998) was 36.6 µM (inactive) and the GI50 (HCT-116) was 3.65 µM (inactive). The GI50 (HCT-15) was 9.51 µM, the GI50 (HL-60) was 23.2 µM (inactive) and the GI50 (HOP-62) was 14.2 µM (inactive). For the same molecule, the GI50 (HOP-92) was 5.92 µM (inactive), the GI50 (HT-29) was 23.8 µM (inactive) and the GI50 (Hs-578T) was 32.3 µM (inactive). For the same molecule, the GI50 (IGROV-1) was 13.5 µM (inactive), the GI50 (KM12) was 11.3 µM (inactive) and the GI50 (LOX IMVI) was 6.03 µM (inactive). The GI50 (M14) was 2 µM (inactive), the GI50 (MCF7) was 3.09 µM (inactive) and the GI50 (MDA-MB-231) was > 43.9 µM (inactive). The GI50 (MDA-MB-435) was 1.52 µM (inactive), the GI50 (MDA-N) was 1.58 µM (inactive) and the GI50 (MOLT-4) was 5.79 µM (inactive). The GI50 (Malme-3M) was 23.7 µM (inactive), the GI50 (NCI-H226) was > 89.1 µM (inactive) and the GI50 (NCI-H23) was 12.7 µM (inactive). For the same molecule, the GI50 (NCI-H522) was 0.656 µM (active), the GI50 (NCI/ADR-RES) was 16.9 µM (inactive) and the GI50 (OVCAR-3) was 26.4 µM (inactive). For the same molecule, the GI50 (OVCAR-4) was 4.71 µM (inactive), the GI50 (OVCAR-5) was > 100 µM (inactive) and the GI50 (OVCAR-8) was 22.1 µM (inactive). For the same molecule, the GI50 (PC-3) was > 46.6 µM (inactive), the GI50 (RPMI-8226) was 8.18 µM (inactive) and the GI50 (RXF 393) was 40.6 µM (inactive). For the same molecule, the GI50 (SF-268) was 8.24 µM (inactive), the GI50 (SF-295) was 7.64 µM (inactive) and the GI50 (SK-MEL-28) was 63.2 µM (inactive). For the same molecule, the GI50 (SK-MEL-2) was 7.98 µM (inactive), the GI50 (SK-MEL-5) was 0.492 µM (active) and the GI50 (SK-OV-3) was > 20.1 µM (inactive). For the same molecule, the GI50 (SN12C) was 39.1 µM (inactive), the GI50 (SNB-19) was > 88.7 µM (inactive) and the GI50 (SNB-75) was 16.4 µM (inactive). The GI50 (SR) was 70 µM (inactive), the GI50 (SW-620) was 12.9 µM (inactive) and the GI50 (T47D) was 0.705 µM (active). For the same molecule, the GI50 (TK-10) was > 100 µM (inactive), the GI50 (U-251) was 37.7 µM (inactive) and the GI50 (UACC-257) was 34.2 µM (inactive). For the same molecule, the GI50 (UACC-62) was 23.3 µM (inactive).

With `Cc1nc(C)c(N2CCN(Cc3ccccc3)CC2)c(O)n1` the GI50 (786-0) was > 100 µM (inactive), the GI50 (A498) was > 100 µM (inactive) and the GI50 (A549) was > 100 µM (inactive). The GI50 (ACHN) was > 100 µM (inactive), the GI50 (BT-549) was > 100 µM (inactive) and the GI50 (CCRF-CEM) was > 100 µM (inactive). For the same molecule, the GI50 (COLO 205) was > 100 µM (inactive), the GI50 (DU-145) was > 100 µM (inactive) and the GI50 (EKVX) was > 100 µM (inactive). The GI50 (HCC 2998) was > 100 µM (inactive), the GI50 (HCT-116) was > 100 µM (inactive) and the GI50 (HCT-15) was > 100 µM. The GI50 (HL-60) was > 100 µM (inactive), the GI50 (HOP-62) was > 100 µM (inactive) and the GI50 (HOP-92) was > 100 µM (inactive). The GI50 (HT-29) was > 100 µM (inactive), the GI50 (Hs-578T) was > 100 µM (inactive) and the GI50 (IGROV-1) was > 100 µM (inactive). The GI50 (K562) was > 100 µM (inactive), the GI50 (KM12) was > 100 µM (inactive) and the GI50 (LOX IMVI) was > 100 µM (inactive). The GI50 (M14) was > 100 µM (inactive), the GI50 (MCF7) was > 100 µM (inactive) and the GI50 (MDA-MB-231) was > 100 µM (inactive). For the same molecule, the GI50 (MDA-MB-435) was > 100 µM (inactive), the GI50 (MDA-N) was > 100 µM (inactive) and the GI50 (MOLT-4) was > 100 µM (inactive). The GI50 (Malme-3M) was > 100 µM (inactive), the GI50 (NCI-H226) was > 100 µM (inactive) and the GI50 (NCI-H23) was > 100 µM (inactive). For the same molecule, the GI50 (NCI-H460) was > 100 µM (inactive), the GI50 (NCI-H522) was > 100 µM (inactive) and the GI50 (NCI/ADR-RES) was > 100 µM (inactive). For the same molecule, the GI50 (OVCAR-3) was > 100 µM (inactive), the GI50 (OVCAR-4) was > 100 µM (inactive) and the GI50 (OVCAR-8) was > 100 µM (inactive). The GI50 (PC-3) was > 100 µM (inactive), the GI50 (RPMI-8226) was > 100 µM (inactive) and the GI50 (RXF 393) was > 100 µM (inactive). The GI50 (SF-268) was > 100 µM (inactive), the GI50 (SF-295) was > 100 µM (inactive) and the GI50 (SF-539) was > 100 µM (inactive). The GI50 (SK-MEL-28) was > 100 µM (inactive), the GI50 (SK-MEL-5) was > 100 µM (inactive) and the GI50 (SK-OV-3) was > 100 µM (inactive). For the same molecule, the GI50 (SN12C) was > 100 µM (inactive), the GI50 (SNB-19) was > 100 µM (inactive) and the GI50 (SR) was > 100 µM (inactive). The GI50 (SW-620) was > 100 µM (inactive), the GI50 (T47D) was > 100 µM (inactive) and the GI50 (TK-10) was > 100 µM (inactive). For the same molecule, the GI50 (U-251) was > 100 µM (inactive), the GI50 (UACC-257) was > 100 µM (inactive) and the GI50 (UACC-62) was > 100 µM (inactive). For the same molecule, the GI50 (UO-31) was > 100 µM (inactive).
